Consider 2 molecules from article PMC11530130, “Peripherally restricted PICK1 inhibitor mPD5 ameliorates pain behaviors in murine inflammatory and neuropathic pain models” (JCI Insight, 2024).

The subject of data set [1] is naive mice. Kind of data set: Conditioned place preference (CPP). It counts as in vivo, mouse. The settings on record: for locomotion during conditioning compared with PBS / time in the drug-paired compartment during the posttest compared with PBS: naive mice. The protocol: compartment and that a single exposure of psychostimulants in the grey compartment sufficiently changes the preference towards that compartment (9-11). For further details of the setup, we refer to (10). Experiments lasted three days with exposure sessions on days one and two and a preference test on day three. On each day, animals were moved from the housing facility to the experimental room and allowed to acclimatize for at least 60 min before initiation of the experiment. mPD5 was paired with the grey compartment, known to be the least preferred compartment (10, 11). All mice from a cage were tested at the same time, but not all were given the same treatment. Mice were weighed and injected s.c. with PBS or 30 μmol/kg mPD5. For the sePP on CFA-injected mice, the injury was induced as described in “Induction of inflammatory pain (CFA model)”-section. sePP was run on day 3-5 after CFA-injection, and von Frey was performed on days 0, 2, and 5 as described in the “Mechanically-evoked pain (von Frey)”-section.
Conditioned place preference.
CPP was performed in Med-Associates square behavioral chambers fitted with beam-break movement detection. Chambers are split in two (27.3 x 13.5 cm each) with a red Plexiglas wall (allowing penetrance of the beams) and a predictable-preference design. Least-preferred compartment: white walls + floor and a transparent lid. Preferred compartment: horizontal grey and black stripes on the wall and lid with a light grey upside-down Lego® floor. Mice can freely move between the two compartments through a 4x4 cm opening in the separating wall during pretest and posttest but are confined to one compartment during conditionings.
Pretest (DAY 1): To test the basal preference of the mice, they were placed in the chamber to freely move between the two compartments for 30 min. Time spent in each compartment was […]
compartment was used to define three even groups.
Conditioning (DAY 2-9): Mice were injected s.c. with PBS, morphine (10 mg/kg) (RH Pharmacy, Denmark, Vnr. 475249), or 10 μmol/kg mPD5 immediately before being placed in and confined to the appropriate compartment for 40 min. Drug was paired to the least-preferred compartment, conditioning was alternated so that mice were never placed in the same compartment two days in a row, and the day on which they were exposed to drug was […]
Preference test (DAY 10): Mice were allowed to freely move between the two compartments […]
Ultrasonic vocalisation (USV) recordings.
Mice were left in Med-Associates square behavioral chambers (27 cm x 27 cm) to freely roam around for 60 min, four days in a row. The first two days were for habituation, but on the third and fourth days, USV recordings were performed using an Avisoft UltraSoundGate 416Hb recording interface (Model CM16-CMPA, Avisoft Bioacoustics, Germany) at a sampling rate of 250,000 Hz in 16-bit format kindly loaned by Morgan Thomsen and Simone Tonetto (Department of Neuroscience, University of Copenhagen, Copenhagen). On day three, both control and SNI mice were placed directly in the chambers and recorded for 60 min. On day four, control mice were injected s.c. with PBS, and SNI mice were injected with either 10 μmol/kg mPD5 or PBS immediately before being placed in the chambers and recorded for 60 min. The recordings were analyzed using the Avisoft SASLab Pro software (Version 5.02.07, Avisoft Bioacoustics) as described in (12), applying a fast fourier transformation (FFT) (1024 FTT length, 100% frame size, Blackman window, and 87.5% time window overlap).
Spectrograms were produced at a frequency resolution of 244 Hz and a time resolution of 0.512 ms. Spectrogram analysis was performed using an automatic whistle-tracking algorithm with an element separation threshold of -45 dB, 1 ms minimal duration, and a hold time of 10 ms.

The subject of data set [2] is naive mice. Kind of data set: Capsaicin test (licking time). It counts as in vivo, mouse. The settings on record: for capsaicin-induced licking time, individual mice: female and male; for effect on capsaicin-induced licking time: naive mice, both sexes. Set-up: capsaicin-induced licking time, individual mice: unit not given here. The protocol: Naïve wildtype male and female mice (10 weeks of age) were habituated to handling and experimental set up for one week prior to data collection. […]
Mice were pretreated with 10 μmol/kg mPD5, 10 mg/kg morphine (RH Pharmacy, Denmark, Vnr. 475249), or PBS 45 min before habituation to observation container (glass cylinder surrounded by mirrors on 2 sides) for 15 min. Mice then received an intraplantar injection of 20 µl capsaicin (1.6 ug/paw) (sigma CAS Number:404-86-4, diluted with 1:1:8 solution of tween-20, 70% ethanol, and MilliQ water) in one hind paw and were reintroduced to the observation container. Mice were recorded for three min after i.pl. injection with capsaicin and euthanized the same day. Mice were scored manually for the amount of time spent paw licking within three min after capsaicin administration. […]
Females were weighed on a regular basis from removal of the males […]
Unless otherwise stated, all data were analysed using GraphPad Prism 9.4.1. and presented as mean +-SEM with the significance level set to p < 0.05. For locomotion and elevated plus maze, Ethovision XT 13 (Noldus) was used to track the distance travelled by each animal. For within group analysis (i.e., von Frey experiments), two-way ANOVA followed by Dunnett’s post hoc test was used. For between group analysis of multiple time points (i.e., locomotion experiments), two-way ANOVA was used without post hoc test due to lack of treatment significance in the ANOVA test. For the limb use experiment, data pre versus post treatment was analysed with a Kruskal Wallis test due to the non-parametric nature of the data. When analysing histograms of three groups or more (i.e., marble burying and elevated plus maze),

Values joined by “and” are separate entries in the source; they are usually repeats but may differ in a detail not shown here. Equal values may be shown once.

For `CCCCCCCCCCCCCC(=O)N(CCOCCOCCC(=O)N[C@@H](Cc1c[nH]cn1)C(=O)N[C@@H](Cc1c[nH]c2ccccc12)C(=O)N[C@@H](CC(C)C)C(=O)N[C@@H](CCCCN)C(=O)N[C@H](C(=O)O)C(C)C)CCOCCOCCC(=O)N[C@@H](Cc1c[nH]cn1)C(=O)N[C@@H](Cc1c[nH]c2ccccc12)C(=O)N[C@@H](CC(C)C)C(=O)N[C@@H](CCCCN)C(=O)N[C@H](C(=O)O)C(C)C` [mPD5, myristoyl-NPEG4-(HWLKV)2], the “Conditioned place preference, Fig 6O, individual mice” value in the data set on naive mice [1] (10 umol/kg) is 422.4 and 657.8 and 145.75 and 377.8 and 709.7 and 623.7 and 240.55 and 244.05. In addition, the “CPP conditioning session value, Fig 6N, individual mice” value is 2308.61 and 1809.85 and 2224.56 and 2674.86 and 871.493 and 1226.84 and 1378.23 and 2217.21 in the data set with naive mice [1] (Cond1, 10 umol/kg); 1180.49 and 1059.56 and 1212.87 and 2147.54 and 783.988 and 1076.18 and 1174.28 and 2455.85 in the data set on naive mice [1] (Cond2, 10 umol/kg); 1906.76 and 766.515 and 1139.87 and 2374.29 and 1205.41 and 1378.46 and 1356.35 and 1697.51 in the data set with naive mice [1] (Cond3, 10 umol/kg); 2079.11 and 1457.65 and 2495.22 and 2149.64 and 1597.67 and 2463.25 and 958.529 and 1951.51 in the data set with naive mice [1] (Cond4, 10 umol/kg). Also, the “locomotion during conditioning compared with PBS” value in the data set with naive mice [1] (s.c. 10 μmol/kg) was “did not affect locomotion”. The “time in the drug-paired compartment during the posttest compared with PBS” value in the data set with naive mice [1] (s.c. 10 μmol/kg) is “did not”. Further, the “capsaicin-induced licking time, individual mice” value with naive mice [2] (10 umol/kg, female mice) was 12.96 and 9.28 and 8.67 and 18.61; with naive mice [2] (10 umol/kg, male mice) it was 12.98 and 14.19 and 30.63. In the data set with naive mice [2] (s.c. 10 μmol/kg), the “effect on capsaicin-induced licking time” value was “no effect on time spent licking”.
Take `CN1CC[C@]23c4c5ccc(O)c4O[C@H]2[C@@H](O)C=C[C@H]3[C@H]1C5` [morphine]: the “Conditioned place preference, Fig 6O, individual mice” value in the data set with naive mice [1] (10 mg/kg) is 641.2 and 758.05 and 523.1 and 617.25 and 422.75 and 543.85 and 370.9 and 516.75. The “CPP conditioning session value, Fig 6N, individual mice” value in the data set with naive mice [1] (Cond1, 10 mg/kg) is 9137.98 and 12057.9 and 7914.76 and 12165.9 and 13969.3 and 7487.52 and 2666.42 and 10528.9; in the data set on naive mice [1] (Cond2, 10 mg/kg) it was 15370.1 and 15969.7 and 11493.6 and 16698.2 and 17811.8 and 8242.22 and 9139.38 and 16599.9; in the data set on naive mice [1] (Cond3, 10 mg/kg), 15699.6 and 17306.6 and 14219.9 and 18863.2 and 19954.9 and 11799.1 and 7739.36 and 18695.7; in the data set with naive mice [1] (Cond4, 10 mg/kg), 14707.1 and 15254.9 and 15074.4 and 17950.9 and 21599.6 and 11535.1 and 8924.2 and 17697.5. For the same molecule, the “locomotion during conditioning compared with PBS” value with naive mice [1] (s.c. 10 mg/kg) is listed as “significantly increased locomotion”. For the same molecule, in the data set with naive mice [1] (s.c. 10 mg/kg), the “time in the drug-paired compartment during the posttest compared with PBS” value is recorded as “significantly more time in the drug-paired compartment”. Moreover, in the data set on naive mice [2] (10 mg/kg), the “capsaicin-induced licking time, individual mice” value turned out to be 0. Also, in the data set on naive mice [2] (s.c. 10 mg/kg), the “effect on capsaicin-induced licking time” value is listed as “significantly reduced the licking time”.
